{"source": "patent US20040033982A1", "about": "“Viral inhibition by n-docosanol” (priority 2001, published 2004)", "format_in_all_cases": "cell-based", "key": {"[1]": {"tested_on": "acyclovir-resistant HSV-2", "assay": "Plaque formation by acyclovir-resistant HSV-2 in Vero cells", "conditions": "FIG. 7, Panel B", "method": "(§1) FIG. 7 depicts data showing that n-docosanol inhibits acyclovir-resistant HSV-2. Vero cells were cultured in 35-mm wells (6×10^5 cells per well) in medium alone (=none) or in the presence of the indicated concentration of acyclovir, n-docosanol-Pluronic F-68 suspension or control suspension (Pluronic F-68 only). The cultures were inoculated 24 hours later with 150 PFU of either wild-type HSV-2 or an acyclovir-resistant laboratory isolate from the wild-type HSV-2 that was plaque purified and passaged in 20 μg/ml acyclovir 44 hours later, the plates were incubated, fixed, stained, and scored for numbers of plaques. The data presented are means of plaques scored from duplicate cultures. The percent inhibition observed in cultures treated with acyclovir or n-docosanol relative to untreated control cultures is denoted in parentheses."}, "wild-type HSV-2": {"tested_on": "wild-type HSV-2", "assay": "Plaque formation by wild-type HSV-2 in Vero cells", "conditions": "FIG. 7, Panel A", "method": "as §1"}, "HSV-1(KOS)gL86": {"tested_on": "HSV-1(KOS)gL86", "assay": "Entry of HSV-1(KOS)gL86 into HEp-2 cells (beta-galactosidase, OD600)", "method": "After attachment of HEp2 cells to culture wells, n-docosanol-vehicle, vehicle alone, or no agent (control) was added. Five to six hours after infection, the cells were processed, X-gal was added, and the absorbance at 600 nm was determined.\nTwenty-four hours before infection, cultured cells were seeded into 24-well (16-mm) plates at 2.5×10^6 cells/well in 0.5 ml cDMEM supplemented with 10% fetal bovine serum (FES). After cell attachment (4-6 h later) heparin, n-docosanol-surfactant, or surfactant alone was added to the cells in 0.5 ml DMEM/10% FES. The agents were dissolved in the medium at two times the desired final concentration. For infection, 0.7 ml of medium was removed from each well and 25 μl of virus suspension was added to the remaining 0.3 ml to give a virus dose of at least 20 p.f.u./cell The plates were rocked at 37° C. for 3 h and then put in a 37° C. […]\nAt 5-6 h after infection, the cells were fixed with PES containing 2% formaldehyde and 0.2% glutaraldehyde, washed, then permeabilized with 0.02% NP-40, 0.01% deoxycholate and 2 mM MgCl2. […] To quantify the amount of color in each well the glycerol was removed from all wells that were then washed 3× with distilled H2O. DMSO (0.6 ml) was added to solubilize the dye and, after transferring 100 μl of each sample well from the 24-well plate to a 96-well plate, the OD600 was recorded using a 96-well plate reader. […]"}, "HSV-I": {"tested_on": "HSV-I", "assay": "Binding of [3H]HSV-I to Vero cells", "conditions": "virus at 2 p.f.u./cell; n-docosanol 15 mM", "excerpt": "Attachment of HSV-I to specific cell surface receptors is unaffected in n-docosanol-treated cells. Previous studies have verified that attachment of HSV-1 to specific cell surface receptors is unaffected in n-docosanol-treated cells. […] Heparin inhibited this interaction 96%."}}, "data": [{"compound": "Nc1nc2c(ncn2COCCO)c(=O)[nH]1", "note": "[acyclovir, reference compound]", "values": [{"measurement": "inhibition of plaque formation", "setting": "[1]", "result": "not inhibited"}, {"measurement": "inhibition of plaque formation", "setting": "wild-type HSV-2", "result": "inhibit plaque formation by wild type HSV-2 equally"}, {"measurement": "inhibition of the beta-galactosidase signal", "setting": "HSV-1(KOS)gL86", "result": "not inhibited"}]}, {"compound": "Heparin [reference compound]", "values": [{"measurement": "inhibition of [3H]HSV-I binding", "setting": "HSV-I", "result": 96, "unit": "%"}, {"measurement": "concentration at which inhibition appeared to be complete", "setting": "HSV-1(KOS)gL86; examined between 1 and 10 μg/ml", "result": 6, "unit": "µg/mL"}]}]}
